Some results are limits rather than exact numbers.

Among the targets are Histone deacetylase 2 (Homo sapiens, UniProt Q92769); Histone deacetylase 3 (Homo sapiens, UniProt O15379); Histone deacetylase 1 (Homo sapiens, UniProt Q13547).
The nature of assay [1]: Selectivity for HDAC10 over HDAC1.
Another assay has as its system BXPC-3. Briefly: Cytotoxicity against human BxPC3 cells after 72 hrs by MTT assay. In kind it is functional, cell-based. The settings on record: BXPC-3, 72 h. A general note: Formazan colour is commonly taken as a measure of viable cells.
A short description of assay [2]: Cytotoxicity against human Hup T3 cells after 72 hrs by MTT assay. In kind it is functional, cell-based. Conditions: HuP-T3, 72 h.
The next assay concerns MIA PaCa-2. In words: Cytotoxicity against human Mia Paca2 cells after 72 hrs by MTT assay. In kind it is functional, cell-based. Conditions: MIA PaCa-2, 72 h.
A short description of assay [3]: Cytotoxicity against human Panc 04.03 cells after 72 hrs by MTT assay. In kind it is functional, cell-based. Conditions: Panc 04.03, 72 h.
The nature of assay [4]: Cytotoxicity against human SU 86.86 cells after 72 hrs by MTT assay. In kind it is functional, cell-based. The settings on record: SU.86.86, 72 h.
Assay [5] can be described thus: Cytotoxicity against nontransformed human microvascular epithelial cells. In kind it is ADME, cell-based. Conditions: Endothelial cell.
A short description of assay [6]: Cytotoxicity against human HPDE6c7 cells. In kind it is ADME, cell-based.
Another assay concerns the target T1, Histone deacetylase 8 (Homo sapiens, UniProt Q9BY41).
T1 sequence (Q9BY41 whole entry): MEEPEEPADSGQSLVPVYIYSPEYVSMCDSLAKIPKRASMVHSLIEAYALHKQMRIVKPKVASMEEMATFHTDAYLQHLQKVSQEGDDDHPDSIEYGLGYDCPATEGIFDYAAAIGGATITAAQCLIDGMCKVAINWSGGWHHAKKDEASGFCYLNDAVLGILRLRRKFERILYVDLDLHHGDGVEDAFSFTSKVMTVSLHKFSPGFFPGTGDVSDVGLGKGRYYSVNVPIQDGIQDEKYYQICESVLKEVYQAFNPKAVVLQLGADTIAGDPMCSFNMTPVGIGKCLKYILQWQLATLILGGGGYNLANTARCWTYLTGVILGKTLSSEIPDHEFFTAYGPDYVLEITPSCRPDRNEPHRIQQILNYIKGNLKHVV

For assay [7], the target named is T2, Polyamine deacetylase HDAC10 (Homo sapiens, UniProt Q969S8).
T2 sequence (Q969S8 whole entry): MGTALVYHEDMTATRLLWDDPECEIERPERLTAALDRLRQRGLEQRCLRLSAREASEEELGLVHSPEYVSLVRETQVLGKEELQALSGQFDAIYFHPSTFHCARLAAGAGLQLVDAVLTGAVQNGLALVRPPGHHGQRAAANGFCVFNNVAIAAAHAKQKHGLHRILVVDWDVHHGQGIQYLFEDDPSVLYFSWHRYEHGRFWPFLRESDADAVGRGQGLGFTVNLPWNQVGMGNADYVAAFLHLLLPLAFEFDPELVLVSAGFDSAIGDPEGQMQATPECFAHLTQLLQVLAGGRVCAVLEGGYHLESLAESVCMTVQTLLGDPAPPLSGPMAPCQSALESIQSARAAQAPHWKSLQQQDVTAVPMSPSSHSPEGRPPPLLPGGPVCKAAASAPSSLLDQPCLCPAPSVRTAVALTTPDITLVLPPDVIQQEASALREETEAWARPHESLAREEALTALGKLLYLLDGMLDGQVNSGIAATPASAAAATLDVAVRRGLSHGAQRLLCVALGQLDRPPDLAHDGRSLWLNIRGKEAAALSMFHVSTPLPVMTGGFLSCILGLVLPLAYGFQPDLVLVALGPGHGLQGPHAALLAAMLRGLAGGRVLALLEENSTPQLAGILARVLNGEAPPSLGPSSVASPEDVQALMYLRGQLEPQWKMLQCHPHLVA

The target of assay [8] is T3, Protein deacetylase HDAC6 (Homo sapiens, UniProt Q9UBN7).
T3 sequence (Q9UBN7 whole entry): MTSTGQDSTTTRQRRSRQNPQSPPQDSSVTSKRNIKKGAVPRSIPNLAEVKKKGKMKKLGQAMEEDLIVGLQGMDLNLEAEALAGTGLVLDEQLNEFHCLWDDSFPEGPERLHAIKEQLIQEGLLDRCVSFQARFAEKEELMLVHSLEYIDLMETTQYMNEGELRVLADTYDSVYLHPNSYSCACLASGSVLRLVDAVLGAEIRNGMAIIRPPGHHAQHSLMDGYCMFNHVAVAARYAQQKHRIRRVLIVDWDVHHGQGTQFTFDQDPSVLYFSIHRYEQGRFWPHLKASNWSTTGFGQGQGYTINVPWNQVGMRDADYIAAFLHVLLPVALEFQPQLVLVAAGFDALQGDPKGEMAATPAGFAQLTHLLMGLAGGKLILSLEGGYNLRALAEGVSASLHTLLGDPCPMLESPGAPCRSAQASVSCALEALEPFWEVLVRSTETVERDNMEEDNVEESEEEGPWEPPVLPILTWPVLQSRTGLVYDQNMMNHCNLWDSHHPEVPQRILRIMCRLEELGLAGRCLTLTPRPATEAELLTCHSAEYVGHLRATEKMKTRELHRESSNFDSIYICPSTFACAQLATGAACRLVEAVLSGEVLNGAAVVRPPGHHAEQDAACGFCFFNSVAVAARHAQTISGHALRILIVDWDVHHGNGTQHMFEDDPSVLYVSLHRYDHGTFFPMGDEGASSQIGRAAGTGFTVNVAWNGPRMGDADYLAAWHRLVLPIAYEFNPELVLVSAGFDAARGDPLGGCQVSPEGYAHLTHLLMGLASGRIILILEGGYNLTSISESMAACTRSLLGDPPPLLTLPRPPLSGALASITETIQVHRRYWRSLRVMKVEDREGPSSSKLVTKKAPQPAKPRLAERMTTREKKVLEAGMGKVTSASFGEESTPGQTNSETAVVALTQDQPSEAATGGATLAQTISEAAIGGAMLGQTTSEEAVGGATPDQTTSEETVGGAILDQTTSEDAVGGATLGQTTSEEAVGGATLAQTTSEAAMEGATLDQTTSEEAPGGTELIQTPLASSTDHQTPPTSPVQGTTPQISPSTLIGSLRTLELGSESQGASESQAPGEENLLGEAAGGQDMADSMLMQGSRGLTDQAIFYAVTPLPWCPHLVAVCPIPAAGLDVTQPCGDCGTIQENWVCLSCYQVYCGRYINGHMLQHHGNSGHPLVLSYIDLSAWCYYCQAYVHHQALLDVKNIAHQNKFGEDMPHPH

For assay [9], the system named is Plasmodium falciparum. Briefly: Antimalarial activity against Plasmodium falciparum D6 by hypoxanthine uptake. In kind it is functional, organism-based.
The subject of assay [10] is Plasmodium falciparum. In words: Antimalarial activity against Plasmodium falciparum W2 by hypoxanthine uptake. In kind it is functional, organism-based.
Assay [11] deals with Plasmodium falciparum. In words: Antimalarial activity against Plasmodium falciparum TM90C2A by hypoxanthine uptake. In kind it is functional, organism-based.
In assay [12] the test system is Plasmodium falciparum. In words: microbe, parasite or virus in culture. The settings on record: TM91C235.
Description: Antimalarial activity against Plasmodium falciparum TM91C235 by hypoxanthine uptake

Histone deacetylase 3, sequence (O15379 whole entry): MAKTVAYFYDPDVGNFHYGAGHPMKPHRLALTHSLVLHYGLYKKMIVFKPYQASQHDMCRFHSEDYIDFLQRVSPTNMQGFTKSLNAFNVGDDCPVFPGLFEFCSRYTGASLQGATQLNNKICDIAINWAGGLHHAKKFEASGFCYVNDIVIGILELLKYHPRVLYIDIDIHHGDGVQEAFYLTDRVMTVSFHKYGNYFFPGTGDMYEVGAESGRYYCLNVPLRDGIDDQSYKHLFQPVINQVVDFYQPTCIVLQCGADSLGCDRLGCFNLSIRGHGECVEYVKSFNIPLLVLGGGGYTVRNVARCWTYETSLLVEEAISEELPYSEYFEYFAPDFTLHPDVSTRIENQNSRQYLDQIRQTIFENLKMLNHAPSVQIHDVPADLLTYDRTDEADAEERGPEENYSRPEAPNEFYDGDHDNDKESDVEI
Histone deacetylase 2, sequence (Q92769 whole entry): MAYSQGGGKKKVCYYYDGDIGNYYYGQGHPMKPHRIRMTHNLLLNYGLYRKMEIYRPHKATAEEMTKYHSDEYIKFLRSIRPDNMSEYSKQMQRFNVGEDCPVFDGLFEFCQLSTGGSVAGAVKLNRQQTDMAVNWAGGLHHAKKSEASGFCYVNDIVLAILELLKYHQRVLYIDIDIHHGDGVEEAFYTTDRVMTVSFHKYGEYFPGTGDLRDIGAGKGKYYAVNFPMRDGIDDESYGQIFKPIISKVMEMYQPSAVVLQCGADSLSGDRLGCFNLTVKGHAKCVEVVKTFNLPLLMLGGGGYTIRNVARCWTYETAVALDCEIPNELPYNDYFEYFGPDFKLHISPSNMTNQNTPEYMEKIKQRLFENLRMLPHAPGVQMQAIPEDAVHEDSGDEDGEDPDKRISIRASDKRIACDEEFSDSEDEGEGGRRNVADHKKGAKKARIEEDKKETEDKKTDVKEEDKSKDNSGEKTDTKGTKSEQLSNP
Histone deacetylase 1, sequence (Q13547 whole entry): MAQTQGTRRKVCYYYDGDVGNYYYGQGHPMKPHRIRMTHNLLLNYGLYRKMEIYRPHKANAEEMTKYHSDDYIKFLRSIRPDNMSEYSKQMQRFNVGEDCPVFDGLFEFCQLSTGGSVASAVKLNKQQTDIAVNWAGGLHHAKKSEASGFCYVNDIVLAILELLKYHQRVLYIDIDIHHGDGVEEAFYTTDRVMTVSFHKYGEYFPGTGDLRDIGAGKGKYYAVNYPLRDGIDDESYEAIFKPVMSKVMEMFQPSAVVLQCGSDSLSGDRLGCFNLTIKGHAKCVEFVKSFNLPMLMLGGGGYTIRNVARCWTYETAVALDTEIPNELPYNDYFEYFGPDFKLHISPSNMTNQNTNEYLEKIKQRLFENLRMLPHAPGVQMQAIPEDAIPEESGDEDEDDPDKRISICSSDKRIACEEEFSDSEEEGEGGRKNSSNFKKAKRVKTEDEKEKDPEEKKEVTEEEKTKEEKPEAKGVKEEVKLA

For `O=C(CCCCCCC(=O)Nc1ccc(-c2cn(-c3ccccc3)nn2)cc1)NO`, the IC50 – broadly, the midpoint of a concentration-inhibition curve – on Histone deacetylase 2 is 0.0475 µM; on Histone deacetylase 3, 0.008 µM; in the assay with BXPC-3 it was 3 µM; in [2], 1 µM; in the assay with MIA PaCa-2 it was 0.4 µM; in assay [3] it was 1 µM. For the same compound, the IC50 in assay [4] was 1 µM; in [5] it was 1 µM; in assay [6] it was 1 µM; on Histone deacetylase 1 it was 0.0271 µM; against Histone deacetylase 8, 1.97 µM; in assay [7] it was 0.0361 µM. The compound further came in with an IC50 in [8] of 0.0013 µM. In addition, the Ratio IC50 in assay [1] was 0.8.

Take `O=C(CCCCCCC(=O)Nc1cccc(-c2cn(Cc3ccc(F)cc3)nn2)c1)NO`: the half-maximal inhibitory concentration (IC50) was 0.0774 µM on Histone deacetylase 2; 0.004 µM on Histone deacetylase 3; 1 µM with BXPC-3; 1 µM in assay [2]; 0.3 µM in the assay on MIA PaCa-2; 1 µM in assay [3]. Further, the IC50 in [4] is 1 µM; in assay [5], under 1 µM; in [6] it was 0.5 µM; in the assay with Plasmodium falciparum [9], 0.18 µM; with Plasmodium falciparum [10] it was 0.35 µM; in the assay on Plasmodium falciparum [11], 0.11 µM. Besides, the IC50 against Histone deacetylase 1 was 0.0176 µM; at Histone deacetylase 8, 0.552 µM; in [7], 0.0343 µM; in [8] it was 0.0026 µM; in the assay with Plasmodium falciparum [12] it was 0.28 µM. Besides, in [1], the Ratio IC50 came to 0.5.

As to `O=C(CCCCCCC(=O)Nc1cccc(-c2cn(-c3ccccc3)nn2)c1)NO`, the IC50 against Histone deacetylase 2 is 0.0639 µM; in [3] it was under 0.5 µM; in assay [5] it was under 1 µM; in assay [6], under 0.2 µM; in the assay on Plasmodium falciparum [9], 0.017 µM; in the assay with Plasmodium falciparum [10] it was 0.032 µM. For the same compound, the IC50 came out at 0.017 µM in the assay on Plasmodium falciparum [11]; 0.018 µM against Histone deacetylase 1; 2.78 µM on Histone deacetylase 8; 0.0277 µM in assay [7]; 0.0096 µM in [8]; 0.035 µM in the assay with Plasmodium falciparum [12].

Take `O=C(CCCCCCC(=O)Nc1ccc(-c2cnnn2-c2ccccc2)cc1)NO`: the half-maximal inhibitory concentration (IC50) on Histone deacetylase 2 is 0.146 µM; against Histone deacetylase 3, 0.012 µM; in the assay with BXPC-3, 13 µM; in [2] it was 10 µM; in the assay on MIA PaCa-2, 8 µM; in assay [3] it was 8 µM. Also, the IC50 in assay [4] was found to be 11 µM; with Plasmodium falciparum [9], 0.35 µM; in the assay on Plasmodium falciparum [10], 0.62 µM; with Plasmodium falciparum [11] it was 0.17 µM; on Histone deacetylase 1, 0.0705 µM; against Histone deacetylase 8, 0.518 µM. The IC50 was determined as 0.0557 µM in [7], 0.0035 µM in assay [8] and 0.47 µM with Plasmodium falciparum [12]. Further, in assay [1], the Ratio IC50 was found to be 1.3.

Turning to `O=C(CCCCCCC(=O)Nc1cccc(-c2cnnn2CC(O)c2cccc(Br)c2)c1)NO` (centres undefined), the IC50 against Histone deacetylase 2 was found to be 0.116 µM; at Histone deacetylase 3, 0.0042 µM; in the assay with BXPC-3 it was 43 µM; in assay [2], 42 µM; in the assay on MIA PaCa-2, 11 µM; in assay [3], 25 µM. Besides, the IC50 in assay [4] amounted to 23 µM; with Plasmodium falciparum [9], 0.18 µM; in the assay on Plasmodium falciparum [10] it was 0.38 µM; in the assay on Plasmodium falciparum [11] it was 0.12 µM; at Histone deacetylase 1 it was 0.0234 µM; at Histone deacetylase 8, 0.406 µM. Also, the results for the IC50 (in [7]; in [8]; in the assay with Plasmodium falciparum [12]) were 0.0158 µM, 0.0028 µM and 0.39 µM, respectively. Further, the Ratio IC50 in assay [1] was determined as 1.5.

In the case of `O=C(CCCCCCC(=O)Nc1ccc(-c2cnnn2Cc2ccccc2)cc1)NO`, the IC50 on Histone deacetylase 2 was 0.124 µM; against Histone deacetylase 3 it was 0.0097 µM; with BXPC-3, 11 µM; in assay [2] it was 5 µM; in the assay with MIA PaCa-2 it was 2 µM; in assay [3] it was 2 µM. Besides, the IC50 in [4] is 9 µM; in the assay on Plasmodium falciparum [9], 0.4 µM; in the assay with Plasmodium falciparum [10], over 1.2 µM; in the assay with Plasmodium falciparum [11], 0.3 µM; on Histone deacetylase 1, 0.0683 µM; on Histone deacetylase 8 it was 0.79 µM. The values for the IC50 (in assay [7]; in assay [8]; in the assay on Plasmodium falciparum [12]) were 0.0701 µM, 0.0031 µM and 0.52 µM, respectively. Moreover, the Ratio IC50 in assay [1] turned out to be 1.

As to `O=C(CCCCCCC(=O)Nc1cccc(-c2cnnn2Cc2ccccc2)c1)NO`, the IC50 on Histone deacetylase 2 was 0.112 µM; against Histone deacetylase 3, 0.0045 µM; in the assay on BXPC-3, 12 µM; in assay [2], 2 µM; in the assay on MIA PaCa-2 it was 1 µM; in [3] it was 4 µM. Also, the IC50 in assay [4] was found to be 7 µM; in the assay with Plasmodium falciparum [9] it was 0.21 µM; in the assay on Plasmodium falciparum [10] it was 0.6 µM; in the assay on Plasmodium falciparum [11] it was 0.15 µM; against Histone deacetylase 1 it was 0.0186 µM; on Histone deacetylase 8 it was 0.433 µM. Also, the IC50 in assay [7] was 0.0192 µM; in assay [8] it was 0.0033 µM; in the assay with Plasmodium falciparum [12], 0.37 µM. Also, the Ratio IC50 in assay [1] came out at 1.

Turning to `O=C(CCCCCCC(=O)Nc1ccc(-c2cnnn2Cc2ccc(F)cc2)cc1)NO`, the IC50 on Histone deacetylase 2 is 0.0574 µM; against Histone deacetylase 3, 0.0164 µM; in the assay with BXPC-3, 11 µM; in [2] it was 4 µM; in the assay with MIA PaCa-2 it was 8 µM; in assay [3] it was 2 µM. For the same compound, the IC50 in [4] stood at 10 µM; with Plasmodium falciparum [9] it was 0.24 µM; with Plasmodium falciparum [10], 0.46 µM; in the assay with Plasmodium falciparum [11], 0.12 µM; at Histone deacetylase 1, 0.0524 µM; on Histone deacetylase 8, 2.01 µM. The values for the IC50 (in [7]; in assay [8]; with Plasmodium falciparum [12]) were 0.0647 µM, 0.0073 µM and 0.29 µM, respectively. Also, the Ratio IC50 in assay [1] turned out to be 0.8.

The record behind these values is ChEMBL document CHEMBL1150413, “A series of potent and selective, triazolylphenyl-based histone deacetylases inhibitors with activity against pancreatic cancer cells and Plasmodium falciparum” (J Med Chem, 2008).
